Reference: patent US9804152B1, “Human ex vivo skin model and its use in methods of identifying modulators of skin inflammation” (The Procter & Gamble Company, priority 2012, dated 2017)

What was measured:
Assay type in all cases: cell-based
[1] = tested on: endogenously inflamed ex vivo human skin sample; assay: Inhibitors of endogenous inflammation: IL-8/IL-6 secretion by ex vivo skin samples; conditions: for IL-8 secretion: endogenously inflamed skin sample, without inhibitor about 2,600 pg/ml; for IL-8 secretion / IL-8 expression (secretion): day 3; for IL-8 expression: not induced, untreated 1045 pg/ml; for inhibition of endogenous inflammation, conclusion in words: IL-8 as marker; for fold-regulation in secretion (expression) of IL-6 / fold-regulation in secretion (expression) of IL-8: endogenously inflamed skin; for IL-8 expression (secretion): untreated (endogenous) skin sample
Excerpt: (§1) This Example describes the materials and methods used in preparing ex vivo skin samples for use according to the methods disclosed herein. Materials used in preparation of ex vivo skin samples for use in the disclosed screening methods included: Dulbecco's Modified Eagle Medium (DMEM) plus Glutamax, antibiotic and antimycotics, 1× phosphate-buffered saline (PBS), 150×15 mm sterile culture dishes, sterile gauze 4×4, disposable safety scalpels, 4 mm disposable biopsy punch, 6-well cell-culture inserts, disinfected tweezers, cotton-tipped applicators, 6-well culture plates, ruled, disinfected cutting mat (12×12), scraper handle, tissue freezing medium, biopsy cassettes, frozen-tissue freezing vessels, 10% formalin, shipping containers for fixed tissue, and biohazard/sharps containers. Media was prepared in advance of the arrival of ex vivo skin. The skin arrived with the dermis (fat) side down on sterile DMEM soaked gauze in a sterile culture dish. The culture dish was taped shut and in a biohazard zip-lock baggie on an ice pack in a secondary container.
(§2) On arrival, the skin was removed from the bag and soaked in 3×DMEM media (3× refers to concentration of antibiotic and antimycotics) and stored at 4° C. for 1 hour. After 1 hour, the skin was removed from the 3×DMEM and rinsed with sterile 1×PBS. The skin was placed in a clean culture dish containing gauze soaked with 1×DMEM. The sample was put in culture the same day as arrival. If necessary, however, the ex vivo skin samples can be stored at 4° C. overnight.
(§3) In preparation for culture, the following was performed: on a cutting mat, the skin was flipped over so that the epidermis was down and the subcutis (fat) was exposed. The fat was removed with a disposable scalpel by carefully grasping one corner of the skin with sterile serrated forceps and scraping the fat away with the blade held at a 45° angle to the skin. After the fat was removed, the surgical edges were cut off with a scalpel using a scraper as a straight edge guide and to hold the skin in place. Using the scraper as a guide, the skin was cut into 1.25 cm (2×2 squares on grid) wide strips using a ruler to measure the width. The strip was rinsed in a 100 mm culture dish containing 1×PBS. The strips were cut into 1.25 cm^2 squares and placed in a 100 mm culture dish on 1×DMEM-soaked gauze until they were put into culture 30 minutes later.
(§4) Culture plates were prepared that included 2.5 ml of media or media with treatment (e.g., a candidate modulator, an inflammation inducer, and/or an inhibitor of inflammation) in each well of a 6-well plate. One Millicell culture insert was added to each well and 100 μl of 1× DMEM was put in the center of each insert membrane. Squares of skin tissue were selected randomly and placed into each of the inserts (one piece of skin per insert), on top of the media on the membrane. The plates were stored at 33° C., with fresh media changes daily. As a control, baseline tissue measurements were collected from excess waste (cryogenics were used for snap-freezing). Baseline biopsy collection included two 4 mm punches for an MTT colorimetric assay (described below); one 4 mm punch was snap-frozen in OCT tissue compound for fresh histology; one 4 mm punch was fixed in 10% formalin and sent out for paraffin embedding. Expression measurements of inflammation marker genes were performed using PCR and primers appropriate to the known sequence of the gene(s) of interest.
(§5) Culturing and treatment of the ex vivo skin model comprised replicates of n=5. Before experimental treatment, compounds (e.g., a candidate modulator, an inflammation inducer, or a suppressor of inflammation) were solubilized in appropriate solvents (including PBS, media, alcohol, and DMSO). Appropriate dilutions were made for treatment and 15 ml of media was used per plate per day for treatment, with 2.5 ml of media per well under the cell culture insert. Media was pre-warmed and changed every day during the experiment.

[2] = tested on: induced inflamed ex vivo human skin sample (IL-17 + IL-22); assay: Inhibitors of IL-17/IL-22-induced inflammation: IL-8 secretion by ex vivo skin samples; conditions: for IL-8 expression: induced by IL-17 (200 ng/ml)/IL-22 (20 ng/ml), day 4, induced alone 1798 pg/ml; for inhibition of IL-17/IL-22 induced inflammation, conclusion in words: IL-8 as marker; for IL-8 expression (secretion): IL-17/IL-22-induced inflammation, day 3, induced alone about 3,800 pg/ml
[3] = tested on: endogenously inflamed ex vivo human skin sample; assay: Inhibitors of endogenous inflammation: inflammation marker gene expression in ex vivo skin samples; conditions: 10 μM clobetasol
Excerpt: as §1, §2, §3, §4
(§6) Culturing and treatment of the ex vivo skin model comprised replicates of n=5. Before experimental treatment, compounds (e.g., a candidate modulator, an inflammation inducer, or a suppressor of inflammation) were solubilized in appropriate solvents (including PBS, media, alcohol, and DMSO). Appropriate dilutions were made for treatment and 15 ml of media was used per plate per day for treatment, with 2.5 ml of media per well under the cell culture insert. Media was pre-warmed and changed every day during the experiment. […]

[4] = tested on: induced inflamed ex vivo human skin sample (IL-17 + IL-22); assay: Inhibitors of IL-17/IL-22-induced inflammation: inflammation marker gene expression in ex vivo skin samples
Excerpt: as §1, §2, §3, §4, §6

[5] = tested on: ex vivo human skin sample; assay: Inducers of inflammation: inflammation marker gene expression in ex vivo skin samples (PCR)
Excerpt: as §1, §2, §3, §4, §5

[6] = endogenously inflamed, 0.6 nM betamethasone, 0.08 μM hydrocortisone, 30 μM ketoprofen, 35 μM arlatone

c1cnc2c(c1)ccc1cccnc12 [1,10-phenanthroline]
IL-8 secretion ([1]; topical 1.2 μg/ml 1,10-phenanthroline): about 900 pg/ml

O=c1cc(-c2ccc(O)cc2)oc2cc(O)cc(O)c12 [apigenin]
IL-8 expression ([1]; 25 μM apigenin, day 4): 106 pg/mL | inhibition of endogenous inflammation, conclusion in words [1]: functions effectively in inhibiting endogenous inflammation | IL-8 expression ([2]; 25 μM apigenin): 1276 pg/mL | inhibition of IL-17/IL-22 induced inflammation, conclusion in words [2]: does not appear to function effectively to inhibit induced inflammation

C[C@H]1C[C@H]2[C@@H]3CCC4=CC(=O)C=C[C@]4(C)[C@@]3(F)[C@@H](O)C[C@]2(C)[C@@]1(O)C(=O)CCl [clobetasol]
fold-regulation in secretion (expression) of IL-6 ([1]; 10 μM clobetasol, donor 1 of 5): −3.28 fold | fold-regulation in secretion (expression) of IL-8 ([1]; 10 μM clobetasol, donor 1 of 5): −2.72 fold | fold-regulation in secretion (expression) of IL-6 ([1]; 10 μM clobetasol, donor 2 of 5): −3.55 fold | fold-regulation in secretion (expression) of IL-8 ([1]; 10 μM clobetasol, donor 2 of 5): −2.72 fold | fold-regulation in secretion (expression) of IL-6 ([1]; 10 μM clobetasol, donor 3 of 5): −8.69 fold | fold-regulation in secretion (expression) of IL-8 ([1]; 10 μM clobetasol, donor 3 of 5): −3.68 fold | fold-regulation in secretion (expression) of IL-6 ([1]; 10 μM clobetasol, donor 4 of 5): −5.70 fold | fold-regulation in secretion (expression) of IL-8 ([1]; 10 μM clobetasol, donor 4 of 5): −3.89 fold | fold-regulation in secretion (expression) of IL-6 ([1]; 10 μM clobetasol, donor 5 of 5): −2.20 fold | fold-regulation in secretion (expression) of IL-8 ([1]; 10 μM clobetasol, donor 5 of 5): −1.76 fold | IL-8 expression ([1]; 10 μM clobetasol, day 4): 50 pg/mL | IL-8 secreted into the media ([1]; 10 μM clobetasol, otherwise untreated sample, day 4, untreated about 5,800, 0.01% DMSO about 8,000 pg/ml): about 400 pg/ml | inhibition of endogenous inflammation, conclusion in words [1]: functions effectively as an inhibitor of both endogenous and induced inflammation | IL-8 secretion ([1]; topical 10 μM clobetasol): about 300 pg/ml | IL-8 expression (secretion) ([1]; topical clobetasol 1 μg/cm^2 skin surface, reduction from about 1,200 pg/ml): about 200 pg/ml | gene expression of key inflammatory markers (nine marker genes, FIG. 8), in words ([3]; endogenous inflammation): appropriately inhibits gene expression of key inflammatory markers | S100A7 expression, in words [3, 6]: inhibited S100A7 expression | rank ordering of inflammation inhibitors based on IL-8 and IL-6 inhibition levels [3, 6]: most effective inhibitor | reduction in the three markers (IL-6, IL-8, and TNFa), rank ordering of efficacy in words (FIG. 15) [3, 6]: shows the greatest reduction | gene expression of IL-8, IL-6, S100A7 and DEFB4, in words ([3]; topical, day 3 (72 hours), 1.2 μg/ml 1,10-phenanthroline, endogenous inflammation): inhibited expression of IL-8, IL-6 and S100A7 | IL-6 expression relative to control values ([4]; 10 μM clobetasol with IL-17 (200 ng/ml) and IL-22 (20 ng/ml), induced alone about 6-fold): about 0.3 fold | IL-8 expression relative to the untreated control ([4]; 10 μM clobetasol with IL-17 (200 ng/ml) and IL-22 (20 ng/ml), induced alone about 16-fold): about 3 fold | S100A7 expression relative to the untreated control ([4]; 10 μM clobetasol with IL-17 (200 ng/ml) and IL-22 (20 ng/ml), induced alone about 34-fold): about 26 fold | DEFB4 expression relative to controls ([4]; 10 μM clobetasol with IL-17 (200 ng/ml) and IL-22 (20 ng/ml), induced alone about 800-fold): about 200 fold | gene expression of key inflammatory markers (nine marker genes, FIG. 8), in words ([4]; 10 μM clobetasol, IL-17 (200 ng/ml) + IL-22 (20 ng/ml) driven inflammation): appropriately inhibits gene expression of key inflammatory markers | IL-6 expression level in the presence of the inducers and clobetasol, in words ([4]; 10 μM clobetasol, IL-17 (200 ng/ml) and IL-22 (20 ng/ml)): lower than the IL-6 expression level in untreated skin cells | expression levels of IL-8, IL-6, S100A7 and DEFB4, in words ([4]; 10 μM clobetasol, inflammation induced by IL-17 (200 ng/ml) and IL-22 (20 ng/ml)): significantly reduced expression levels | IL-8 expression (secretion) ([2]; 1 pg/cm^2 topical clobetasol): about 1,100 pg/cm^2 | IL-8 secreted into the media ([2]; 10 μM clobetasol with 200 ng/ml IL-17 and 20 ng/ml IL-22, day 4, induced without inhibitor about 13,600 pg/ml): about 4,400 pg/ml | IL-8 expression ([2]; 10 μM clobetasol): 65 pg/mL | inhibition of IL-17/IL-22 induced inflammation, conclusion in words [2]: functions effectively as an inhibitor of both endogenous and induced inflammation

C[C@]12CCC(=O)C=C1CC[C@@H]1[C@@H]2[C@@H](O)C[C@@]2(C)[C@H]1CC[C@]2(O)C(=O)CO [hydrocortisone]
rank ordering of inflammation inhibitors based on IL-8 and IL-6 inhibition levels [3, 6]: followed by betamethasone, hydrocortisone, ketoprofen and arlatone | reduction in the three markers (IL-6, IL-8, and TNFa), rank ordering of efficacy in words (FIG. 15) [3, 6]: less robust

CC(C(=O)O)c1cccc(C(=O)c2ccccc2)c1 (stereo not drawn) [ketoprofen]
CALML5 expression, in words [3, 6]: slightly inhibiting expression | FLG expression, in words [3, 6]: slightly inhibited expression | rank ordering of inflammation inhibitors based on IL-8 and IL-6 inhibition levels [3, 6]: followed by betamethasone, hydrocortisone, ketoprofen and arlatone | reduction in the three markers (IL-6, IL-8, and TNFa), rank ordering of efficacy in words (FIG. 15) [3, 6]: less robust

S=[Se]=S [selenium sulfide]
IL-8 secretion, in words ([1]; selenium sulfide 0.04-25 μM (0.04, 0.2, 1, 5, 25 μM), endogenous inflammation, dose response): decreased secretion levels of IL-8

IL-17: pro-inflammatory cytokine used as inducer of inflammation
induction of inflammation in ex vivo skin samples, in words [5]: shown to induce inflammation in ex vivo skin samples

zinc pyrithione [ZPT]
inhibition of endogenous inflammation, conclusion in words [1]: did not significantly inhibit endogenous inflammation | IL-8 expression (secretion) ([1]; topical 0.4 μg/cm^2 zinc pyrithione, without inhibitor about 1,200 pg/ml): about 2,000 pg/ml | IL-8 expression (secretion) ([2]; 0.4 μg/cm^2 topical ZPT): about 2,300 pg/ml | inhibition of IL-17/IL-22 induced inflammation, conclusion in words [2]: did inhibit IL-17. IL-22 induced inflammation
